The source made the active and inactive calls. The calls are words filed in the database; no cut-off is given here.
What was measured:
[1] = Cytotoxicity against human HMLE cells expressing shRNA and GFP at 20 uM after 70 to 74 hrs by Cell Titer Glo assay; type: cell-based
[2] = Cytotoxicity against human CSC-like HMLE cells expressing shRNA and epithelial cadherin after 70 to 74 hrs by Cell Titer Glo assay; type: functional, cell-based
HMLE = test: Cytotoxicity against human CSC-like HMLE cells expressing shRNA and epithelial cadherin at 20 uM after 70 to 74 hrs by Cell Titer Glo assay; type: functional, cell-based
[3] = Cytotoxicity against human HMLE cells expressing shRNA and GFP after 70 to 74 hrs by Cell Titer Glo assay; type: cell-based

Structure (SMILES) | Activity [1] | EC50 [2] [µM] | Activity (HMLE) | EC50 [3] [µM]
COc1ccc(/C=C/C(=O)NC2=NCCS2)c(OC)c1 | Non-toxic | 9.91 | – | –
O=C(/C=C/c1ccc(F)cc1)NC1=NCCS1 | Non-toxic | – | inactive | –
CCN(CC)C(=O)/C=C/c1ccc(C(C)C)cc1 | Non-toxic | – | inactive | –
Cc1cccc(/C=C/C(=O)NC2=NCCS2)c1 | Non-toxic | – | inactive | –
CC(C)c1ccc(/C=C/C(=O)Nc2ncc[nH]2)cc1 | – | – | inactive | 51.6
CC(C)c1ccc(/C=C(\C#N)C(=O)NC2=NCCS2)cc1 | Non-toxic | – | inactive | –
O=C(/C=C/c1ccc(C(F)(F)F)cc1)NC1=NCCS1 | Non-toxic | – | inactive | –
CC(C)c1ccc(CCC(=O)NC2=NCCS2)cc1 | Non-toxic | 9.91 | – | –
C/C(=C\C(=O)NC1=NCCS1)c1ccc(C)cc1 | Non-toxic | – | inactive | –
C/C(=C\C(=O)NC1=NCCS1)c1ccc(CC(C)C)cc1 | Non-toxic | – | inactive | –
CC(C)c1ccc(/C=C/C(=O)N(C)C2=NCCS2)cc1 | – | – | inactive | 21.1
O=C(/C=C/c1ccc(Cl)c(Cl)c1)NC1=NCCS1 | Non-toxic | – | inactive | –
COc1ccc(OC)c(/C=C/C(=O)NC2=NCCS2)c1 | Non-toxic | – | inactive | –
N#Cc1ccccc1/C=C/C(=O)NC1=NCCS1 | Non-toxic | – | inactive | –
O=C(/C=C/c1ccccc1)NC1=NCCS1 | Non-toxic | – | inactive | –
CC(C)c1ccc(/C=C\C(=O)NC2=NCCS2)cc1 | Non-toxic | – | inactive | –
O=C(/C=C/c1ccc(Cl)cc1Cl)NC1=NCCS1 | Non-toxic | – | inactive | –
N#Cc1cccc(/C=C/C(=O)NC2=NCCS2)c1 | Non-toxic | – | inactive | –

Structure (SMILES) | Activity [1] | EC50 [2] [µM] | Activity (HMLE) | EC50 [3] [µM]
N#Cc1ccc(/C=C/C(=O)NC2=NCCS2)cc1 | Non-toxic | 26.9 | – | –
Cc1ccccc1/C=C/C(=O)NC1=NCCS1 | Non-toxic | – | inactive | –
CC(C)c1ccc(C#CC(=O)NC2=NCCS2)cc1 | Non-toxic | – | inactive | –
COc1ccc(/C=C/C(=O)NC2=NCCS2)c(OC)c1OC | Non-toxic | – | inactive | –
COc1cc(C(C)C)ccc1/C=C/C(=O)NC1=NCCS1 | Non-toxic | 28.4 | – | –
Cc1ccc(/C=C/C(=O)NC2=NCCS2)cc1 | Non-toxic | 16 | – | –
Cn1c(C(=O)NC2=NCCS2)cc2ccccc21 | Non-toxic | – | inactive | –
CCNC(=O)/C=C/c1ccc(C(C)C)cc1 | Non-toxic | – | inactive | –
CC(C)c1ccc(/C=C/C(=O)O)cc1 | Non-toxic | – | inactive | –
Cc1c(C(=O)NC2=NCCS2)oc2ccccc12 | Non-toxic | – | inactive | –
CC(C)c1ccc(C2CC2C(=O)NC2=NCCS2)cc1 (configuration not stated) | Non-toxic | – | inactive | –
O=C(NC1=NCCS1)c1cc2ccccc2[nH]1 | Non-toxic | – | inactive | –
CN(C)c1ccc(/C=C/C(=O)NC2=NCCS2)cc1 | Non-toxic | 27.4 | – | –
COc1ccc(/C=C/C(=O)NC2=NCCS2)cc1OC | Non-toxic | – | inactive | –
COc1cc(OC(C)C)ccc1/C=C/C(=O)NC1=NCCS1 | Non-toxic | – | inactive | –
O=C(/C=C/c1cc(Cl)ccc1Cl)NC1=NCCS1 | Non-toxic | – | inactive | –
O=C(/C=C/c1ccccc1Cl)NC1=NCCS1 | Non-toxic | 35 | – | –
COc1cc(/C=C/C(=O)NC2=NCCS2)cc(OC)c1OC | Non-toxic | – | inactive | –
